Laboratory results taken from ChEMBL document CHEMBL5712070, “Discovery of a chemical probe for the L3MBTL3 methyllysine reader domain” (Nat Chem Biol, 2013).

Key:
[1] = biological target: Kappa-type opioid receptor (Homo sapiens, UniProt P41145); assay: Inhibition of KOR (unknown origin) by radioligand binding assay
[2] = biological target: MBT domain-containing protein 1 (Homo sapiens, UniProt Q05BQ5); assay: Inhibition of MBT domain containing MBTD1 (unknown origin) using H4K20me2 peptide by Alpha-Screen methylated histone peptide competition assay
Sequence of MBT domain-containing protein 1 (Q05BQ5 whole entry, the tested form may be a part): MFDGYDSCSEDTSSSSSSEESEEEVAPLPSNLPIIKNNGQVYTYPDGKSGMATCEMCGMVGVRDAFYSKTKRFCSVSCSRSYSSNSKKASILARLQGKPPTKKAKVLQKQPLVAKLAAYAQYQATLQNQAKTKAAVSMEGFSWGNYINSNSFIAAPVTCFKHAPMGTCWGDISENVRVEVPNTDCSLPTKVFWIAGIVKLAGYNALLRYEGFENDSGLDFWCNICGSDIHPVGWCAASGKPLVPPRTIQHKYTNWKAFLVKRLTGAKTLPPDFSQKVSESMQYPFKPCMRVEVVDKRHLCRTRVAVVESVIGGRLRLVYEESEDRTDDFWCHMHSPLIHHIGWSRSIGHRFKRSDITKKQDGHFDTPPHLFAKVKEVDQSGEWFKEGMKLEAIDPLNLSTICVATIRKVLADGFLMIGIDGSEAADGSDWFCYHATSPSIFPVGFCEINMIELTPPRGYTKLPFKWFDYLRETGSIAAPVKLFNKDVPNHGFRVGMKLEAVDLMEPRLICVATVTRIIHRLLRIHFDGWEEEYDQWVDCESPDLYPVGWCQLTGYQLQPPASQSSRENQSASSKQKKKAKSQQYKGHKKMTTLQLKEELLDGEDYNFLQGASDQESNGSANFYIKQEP

[3] = biological target: Chromobox protein homolog 7 (Homo sapiens, UniProt O95931); assay: Inhibition of chromo domain containing CBX7 (unknown origin) using H4K20me2 peptide by Alpha-Screen methylated histone peptide competition assay
Sequence of Chromobox protein homolog 7 (O95931 whole entry, the tested form may be a part): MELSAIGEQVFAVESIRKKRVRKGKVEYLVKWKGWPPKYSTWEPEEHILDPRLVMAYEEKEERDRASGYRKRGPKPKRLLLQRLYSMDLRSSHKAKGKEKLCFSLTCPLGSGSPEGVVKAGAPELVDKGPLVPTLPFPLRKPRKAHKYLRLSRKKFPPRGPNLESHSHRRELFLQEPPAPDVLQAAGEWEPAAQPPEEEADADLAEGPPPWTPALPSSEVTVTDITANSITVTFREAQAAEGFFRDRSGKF

[4] = biological target: T1, Lethal(3)malignant brain tumor-like protein 3 (Homo sapiens, UniProt Q96JM7); assay: Binding affinity to GFP-tagged full length L3MBTL3 (unknown origin) assessed as diffusion coefficient at 1 uM (reference value: 0.037549815 um2/s)
T1 sequence (Q96JM7 whole entry): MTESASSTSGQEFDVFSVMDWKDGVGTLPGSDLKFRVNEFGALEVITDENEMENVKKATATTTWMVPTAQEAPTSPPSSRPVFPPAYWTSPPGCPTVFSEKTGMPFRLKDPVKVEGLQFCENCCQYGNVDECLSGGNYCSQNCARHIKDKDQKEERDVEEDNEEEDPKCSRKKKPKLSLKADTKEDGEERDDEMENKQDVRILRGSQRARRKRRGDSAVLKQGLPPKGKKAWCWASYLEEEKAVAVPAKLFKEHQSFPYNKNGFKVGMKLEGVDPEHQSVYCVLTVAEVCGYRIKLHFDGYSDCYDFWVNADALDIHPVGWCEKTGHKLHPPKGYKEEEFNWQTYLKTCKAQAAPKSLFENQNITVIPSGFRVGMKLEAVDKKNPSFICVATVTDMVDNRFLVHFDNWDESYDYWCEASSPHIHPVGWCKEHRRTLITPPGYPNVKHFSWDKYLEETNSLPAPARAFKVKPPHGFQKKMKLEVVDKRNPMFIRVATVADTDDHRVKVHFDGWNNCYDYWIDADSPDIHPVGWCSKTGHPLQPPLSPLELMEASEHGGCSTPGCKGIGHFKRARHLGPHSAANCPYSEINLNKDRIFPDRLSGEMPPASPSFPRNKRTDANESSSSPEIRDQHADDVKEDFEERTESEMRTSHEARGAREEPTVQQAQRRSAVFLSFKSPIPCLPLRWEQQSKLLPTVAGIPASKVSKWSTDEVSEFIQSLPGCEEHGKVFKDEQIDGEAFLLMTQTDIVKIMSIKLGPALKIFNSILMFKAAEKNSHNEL

[5] = biological target: Sodium-dependent dopamine transporter (Homo sapiens, UniProt Q01959); assay: Inhibition of DAT (unknown origin) by radioligand binding assay
[6] = biological target: E3 ubiquitin-protein ligase UHRF1 (Homo sapiens, UniProt Q96T88); assay: Inhibition of tudor domain containing UHRF1 (unknown origin) using H4K20me2 peptide by Alpha-Screen methylated histone peptide competition assay
Sequence of E3 ubiquitin-protein ligase UHRF1 (Q96T88 whole entry, the tested form may be a part): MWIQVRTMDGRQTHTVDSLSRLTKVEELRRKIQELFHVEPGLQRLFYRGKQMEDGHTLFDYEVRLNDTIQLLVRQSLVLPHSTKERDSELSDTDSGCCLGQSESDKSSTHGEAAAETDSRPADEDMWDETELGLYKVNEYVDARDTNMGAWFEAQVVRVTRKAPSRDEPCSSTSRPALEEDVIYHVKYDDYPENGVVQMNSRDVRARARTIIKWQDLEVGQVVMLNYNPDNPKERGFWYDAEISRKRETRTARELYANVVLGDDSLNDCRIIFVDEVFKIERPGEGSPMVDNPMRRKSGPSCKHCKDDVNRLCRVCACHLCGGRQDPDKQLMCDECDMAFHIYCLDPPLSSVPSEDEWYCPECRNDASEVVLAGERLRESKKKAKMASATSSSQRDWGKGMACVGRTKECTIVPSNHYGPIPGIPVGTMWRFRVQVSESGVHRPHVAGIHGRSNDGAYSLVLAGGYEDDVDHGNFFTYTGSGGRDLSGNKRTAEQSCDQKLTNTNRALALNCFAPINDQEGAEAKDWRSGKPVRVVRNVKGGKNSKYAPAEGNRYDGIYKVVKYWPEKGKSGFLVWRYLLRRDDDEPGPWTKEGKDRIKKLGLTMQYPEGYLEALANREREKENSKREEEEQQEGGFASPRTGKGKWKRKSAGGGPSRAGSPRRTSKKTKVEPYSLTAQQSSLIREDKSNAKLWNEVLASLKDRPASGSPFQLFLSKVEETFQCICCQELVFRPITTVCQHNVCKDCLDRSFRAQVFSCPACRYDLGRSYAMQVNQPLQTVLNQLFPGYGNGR

[7] = biological target: T2, Lethal(3)malignant brain tumor-like protein 3 (Homo sapiens) (UniProt Q96JM7); assay: Binding affinity to GFP-tagged full length L3MBTL3 (unknown origin) assessed as protein half life at 1 uM
T2 sequence (whole entry): T1 sequence (Q96JM7 whole entry)

Homo sapiens = species on record: Homo sapiens; assay: Binding affinity to histone demethylase (unknown origin) assessed as change in melting temperature at 50 uM by Differential scanning fluorimetry relative to control
[8] = biological target: Muscarinic acetylcholine receptor M3 (Homo sapiens, UniProt P20309); assay: Inhibition of M3 receptor (unknown origin) by radioligand binding assay
Sequence of Muscarinic acetylcholine receptor M3 (P20309 whole entry): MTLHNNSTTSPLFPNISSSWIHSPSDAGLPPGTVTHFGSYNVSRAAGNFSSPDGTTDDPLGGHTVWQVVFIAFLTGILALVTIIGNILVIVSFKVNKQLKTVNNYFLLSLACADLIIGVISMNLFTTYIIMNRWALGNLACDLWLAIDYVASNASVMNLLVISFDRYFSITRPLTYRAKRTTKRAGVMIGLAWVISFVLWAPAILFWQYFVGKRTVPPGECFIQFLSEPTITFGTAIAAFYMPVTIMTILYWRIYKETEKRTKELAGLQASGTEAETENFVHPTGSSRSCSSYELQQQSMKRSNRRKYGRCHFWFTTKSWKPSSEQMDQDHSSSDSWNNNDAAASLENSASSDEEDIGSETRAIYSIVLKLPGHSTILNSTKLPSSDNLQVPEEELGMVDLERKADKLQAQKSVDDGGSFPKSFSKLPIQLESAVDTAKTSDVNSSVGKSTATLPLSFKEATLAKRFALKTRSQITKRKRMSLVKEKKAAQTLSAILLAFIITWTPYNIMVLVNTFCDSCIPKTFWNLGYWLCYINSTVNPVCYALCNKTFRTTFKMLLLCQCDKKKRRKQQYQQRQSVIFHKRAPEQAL

[9] = biological target: T1, Lethal(3)malignant brain tumor-like protein 3; assay: Binding affinity to L3MBTL3 (unknown origin) by ITC assay
[10] = biological target: Mortality factor 4-like protein 1 (Homo sapiens, UniProt Q9UBU8); assay: Binding affinity to MRG15 (unknown origin) by ITC assay
Sequence of Mortality factor 4-like protein 1 (Q9UBU8 whole entry): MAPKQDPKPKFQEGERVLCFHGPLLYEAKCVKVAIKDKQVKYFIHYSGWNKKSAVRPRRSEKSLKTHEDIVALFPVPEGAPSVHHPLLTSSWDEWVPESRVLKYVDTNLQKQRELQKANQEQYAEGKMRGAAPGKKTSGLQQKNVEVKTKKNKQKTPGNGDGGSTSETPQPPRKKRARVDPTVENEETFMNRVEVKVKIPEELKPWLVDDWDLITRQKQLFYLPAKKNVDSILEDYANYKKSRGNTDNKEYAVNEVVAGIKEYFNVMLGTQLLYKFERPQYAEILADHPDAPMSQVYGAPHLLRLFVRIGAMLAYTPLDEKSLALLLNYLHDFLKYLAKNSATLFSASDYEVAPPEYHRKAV

[11] = biological target: T2, Lethal(3)malignant brain tumor-like protein 3 (Homo sapiens); assay: Binding affinity to GFP-3MBT tagged L3MBTL3 (unknown origin) assessed as protein half life at 1 uM
PHD finger protein 20 = PHD finger protein 20 (Homo sapiens, UniProt Q9BVI0); assay: Binding affinity to PHF20 (unknown origin) by ITC assay
[12] = biological target: T2, Lethal(3)malignant brain tumor-like protein 3 (Homo sapiens); details: dose 0.01 µM
[13] = biological target: PHD finger protein 20-like protein 1 (Homo sapiens, UniProt A8MW92); assay: Binding affinity to tudor domain containing PHF20L1 (unknown origin) by ITC assay
Sequence of PHD finger protein 20-like protein 1 (A8MW92 whole entry, the tested form may be a part): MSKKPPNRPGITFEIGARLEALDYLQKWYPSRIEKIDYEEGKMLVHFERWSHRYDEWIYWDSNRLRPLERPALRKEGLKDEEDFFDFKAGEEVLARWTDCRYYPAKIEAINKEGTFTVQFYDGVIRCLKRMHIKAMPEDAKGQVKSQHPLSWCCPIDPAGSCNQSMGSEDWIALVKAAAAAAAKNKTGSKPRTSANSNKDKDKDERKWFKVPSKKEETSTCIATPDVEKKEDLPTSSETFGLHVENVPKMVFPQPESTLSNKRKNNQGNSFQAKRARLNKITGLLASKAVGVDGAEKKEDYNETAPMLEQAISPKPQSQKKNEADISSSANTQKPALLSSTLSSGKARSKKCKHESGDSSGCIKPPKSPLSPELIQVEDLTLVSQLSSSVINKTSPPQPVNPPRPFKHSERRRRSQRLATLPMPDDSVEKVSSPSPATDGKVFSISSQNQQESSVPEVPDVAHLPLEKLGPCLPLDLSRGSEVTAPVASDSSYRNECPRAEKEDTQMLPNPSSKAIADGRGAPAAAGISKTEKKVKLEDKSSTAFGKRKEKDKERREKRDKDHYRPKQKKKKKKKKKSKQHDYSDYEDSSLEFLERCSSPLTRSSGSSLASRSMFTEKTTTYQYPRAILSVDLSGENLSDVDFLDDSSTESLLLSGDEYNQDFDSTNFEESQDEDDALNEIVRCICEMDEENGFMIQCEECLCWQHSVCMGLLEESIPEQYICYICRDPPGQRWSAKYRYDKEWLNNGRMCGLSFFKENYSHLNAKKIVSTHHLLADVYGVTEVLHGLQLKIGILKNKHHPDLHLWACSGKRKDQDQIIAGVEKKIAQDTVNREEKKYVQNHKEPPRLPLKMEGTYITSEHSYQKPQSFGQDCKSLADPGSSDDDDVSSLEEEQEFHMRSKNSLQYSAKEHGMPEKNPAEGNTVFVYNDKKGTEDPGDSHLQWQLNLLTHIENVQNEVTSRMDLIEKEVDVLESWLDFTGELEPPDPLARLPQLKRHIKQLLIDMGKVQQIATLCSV

[14] = biological target: T1, Lethal(3)malignant brain tumor-like protein 3; assay: Binding affinity to GFP-tagged full length L3MBTL3 (unknown origin) assessed as diffusion coefficient at 0.5 uM (reference value: 0.037549815 um2/s)
[15] = biological target: T1, Lethal(3)malignant brain tumor-like protein 3; assay: Inhibition of L3MBTL3 (unknown origin) using H4K20me2 peptide by Alpha-Screen methylated histone peptide competition assay
[16] = biological target: T2, Lethal(3)malignant brain tumor-like protein 3 (Homo sapiens); details: dose 0.05 µM
Description: Binding affinity to GFP-3MBT tagged L3MBTL3 (unknown origin) assessed as protein half life at 0.05 uM

[17] = biological target: Receptor-type tyrosine-protein kinase FLT3 (Homo sapiens) (UniProt P36888); assay: Inhibition of FLT3 (unknown origin) at 10 uM relative to control
Sequence of Receptor-type tyrosine-protein kinase FLT3 (Homo sapiens) (P36888 whole entry): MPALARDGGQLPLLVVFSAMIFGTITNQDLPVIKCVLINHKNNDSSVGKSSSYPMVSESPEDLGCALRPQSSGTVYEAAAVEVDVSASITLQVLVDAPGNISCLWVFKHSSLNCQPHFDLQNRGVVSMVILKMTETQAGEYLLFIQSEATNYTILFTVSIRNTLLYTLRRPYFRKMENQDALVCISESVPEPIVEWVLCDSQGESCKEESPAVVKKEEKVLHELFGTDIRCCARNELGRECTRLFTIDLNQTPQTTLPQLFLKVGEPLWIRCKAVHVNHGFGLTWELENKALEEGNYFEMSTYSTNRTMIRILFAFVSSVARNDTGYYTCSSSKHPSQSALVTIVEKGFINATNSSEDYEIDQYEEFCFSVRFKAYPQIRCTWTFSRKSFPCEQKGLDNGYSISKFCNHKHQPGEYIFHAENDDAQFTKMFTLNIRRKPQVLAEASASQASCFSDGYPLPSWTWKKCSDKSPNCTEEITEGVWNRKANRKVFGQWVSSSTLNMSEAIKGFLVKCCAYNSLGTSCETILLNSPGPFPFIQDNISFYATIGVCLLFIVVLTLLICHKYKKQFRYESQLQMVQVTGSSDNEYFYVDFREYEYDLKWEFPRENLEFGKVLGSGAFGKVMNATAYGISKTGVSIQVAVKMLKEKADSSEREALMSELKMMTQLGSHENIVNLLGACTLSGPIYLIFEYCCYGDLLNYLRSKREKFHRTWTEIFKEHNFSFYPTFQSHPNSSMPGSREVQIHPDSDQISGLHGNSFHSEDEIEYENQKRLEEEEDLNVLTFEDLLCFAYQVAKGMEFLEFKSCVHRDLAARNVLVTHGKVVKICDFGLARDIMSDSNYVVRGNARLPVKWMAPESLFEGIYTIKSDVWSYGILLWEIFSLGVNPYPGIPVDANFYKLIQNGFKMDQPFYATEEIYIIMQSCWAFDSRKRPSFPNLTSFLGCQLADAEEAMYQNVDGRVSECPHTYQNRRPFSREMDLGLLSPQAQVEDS

[18] = Cytotoxicity in HEK293T/17 cells assessed as effect on cell viability up to 100 uM incubated for 24 hrs by CellTiter-Glo luminescent cell viability assay; type: toxicity, cell-based; details: human, hek293t/17, 24 h
[19] = biological target: T1, Lethal(3)malignant brain tumor-like protein 3; assay: Binding affinity to GFP-3MBT tagged L3MBTL3 (unknown origin) assessed as diffusion coefficient at 0.01 uM (reference value: 0.1272 um2/s)
[20] = biological target: T3, Muscarinic acetylcholine receptor M1 (Homo sapiens, UniProt P11229); assay: Antagonist activity at human M1 receptor assessed as reduction in acetylcholine-induced response by Schild analysis; type: functional; details: read-out: pA2 (converted)
T3 sequence (P11229 whole entry): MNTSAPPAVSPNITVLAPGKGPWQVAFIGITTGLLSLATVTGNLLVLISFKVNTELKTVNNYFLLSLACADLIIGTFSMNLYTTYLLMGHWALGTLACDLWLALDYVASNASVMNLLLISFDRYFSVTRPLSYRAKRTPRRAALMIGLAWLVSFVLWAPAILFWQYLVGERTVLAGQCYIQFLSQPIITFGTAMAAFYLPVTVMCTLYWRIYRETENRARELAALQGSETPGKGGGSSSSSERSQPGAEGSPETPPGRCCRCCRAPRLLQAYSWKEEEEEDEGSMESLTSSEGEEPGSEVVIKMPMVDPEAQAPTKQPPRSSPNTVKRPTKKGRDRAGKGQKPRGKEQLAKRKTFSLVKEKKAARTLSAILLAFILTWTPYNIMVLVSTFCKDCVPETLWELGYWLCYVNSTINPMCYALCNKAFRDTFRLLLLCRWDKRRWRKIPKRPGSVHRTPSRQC

Sequence of Kappa-type opioid receptor (P41145 whole entry, the tested form may be a part): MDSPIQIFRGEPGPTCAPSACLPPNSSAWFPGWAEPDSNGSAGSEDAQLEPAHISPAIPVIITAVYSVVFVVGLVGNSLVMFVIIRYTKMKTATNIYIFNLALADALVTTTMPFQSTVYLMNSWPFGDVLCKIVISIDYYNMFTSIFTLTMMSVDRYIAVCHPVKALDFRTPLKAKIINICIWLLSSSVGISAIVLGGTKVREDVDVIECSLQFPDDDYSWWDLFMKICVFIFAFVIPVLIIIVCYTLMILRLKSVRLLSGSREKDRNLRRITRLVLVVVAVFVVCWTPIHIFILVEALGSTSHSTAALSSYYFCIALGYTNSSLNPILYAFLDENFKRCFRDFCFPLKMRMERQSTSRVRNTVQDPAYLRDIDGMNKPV

## O=C(c1ccc(C(=O)N2CCC(N3CCCC3)CC2)c(Nc2ccccc2)c1)N1CCC(N2CCCC2)CC1
[1]
  Ki: 4 µM
[2]
  IC50: 6 µM
[3]
  IC50: > 30 µM
[4]
  Diffusion coefficient: 0.051 um2/s
[5]
  Ki: > 10 µM
[6]
  IC50: > 30 µM
[7]
  T1/2: 19.9 s
Homo sapiens
  ΔTm: < 0.5 °C
[8]
  Ki: 0.89 µM
[9]
  Kd: 0.12 µM
[10]
  Kd: 28.9 µM
[11]
  T1/2: 3.6 s
PHD finger protein 20
  Kd: 5.6 µM
[12]
  T1/2: 23.8 s
[13]
  Kd: > 13 µM
[14]
  Diffusion coefficient: 0.05 um2/s
[15]
  IC50: 0.04 µM
[16]
  T1/2: 6.5 s
[17]
  inhibition: 64%
[18]
  Activity: Non-Toxic
[19]
  Diffusion coefficient: 0.146 um2/s
[20]
  Kb: 2.24 µM
